{"source": "patent US12077778B2", "about": "“Methods of generating human inner ear sensory epithelia and sensory neurons” (INDIANA UNIVERSITY RESEARCH AND TECHNOLOGY CORPORATION, priority 2015, dated 2024)", "type_in_all_cases": "cell-based, human", "key": {"[1]": {"test_system": "hPS cell aggregates", "assay": "Otic placode-like cell induction by CHIR treatment on day 8", "conditions": "CHIR 3 μM added on day 8", "method": "hPSC differentiation. To start differentiation, hPSC cells were dissociated with StemPro Accutase (Invitrogen) and distributed, 5,000 cells per well, onto 96-well V-bottom plates in E8 medium containing 20 μM Y-27632 (Stemgent) and Normocin. Following a 48 hour incubation, the aggregates were transferred to 96-well U-bottom plates in 100 μl of Chemically Defined Medium (CDM) containing 4 ng ml^−1 FGF-2 (Peprotech), 10 μM SB-431542 (Stemgent), and, for some experiments, 2.5 ng ml^−1 BMP4 (Stemgent), and 2% Growth Factor Reduced (GFR) Matrigel (Corning) to initiate non-neural induction—i.e. differentiation day 0. CDM contained a 50:50 mixture of F-12 Nutrient Mixture with GlutaMAX (Gibco) and Iscove's Modified Dulbecco's Medium with GlutaMAX (IMDM; Gibco) additionally supplemented with 0.5% Bovine Serum Albumin (BSA), 1× Chemically Defined Lipid Concentrate (Invitrogen), […] (Sigma), 15 μg ml^−1 Transferrin (Sigma), 450 μM Mono-Thioglycerol, and Normocin (see Table 1 for a detailed formulation). […] For some experiments, CDM containing a 18 μM CHIR99021 (3 μM final concentration; Stemgent) was added to the pre-existing 125 μl of media in each well—we determined that this treatment is optional for inner ear organoid production, but may improve induction of otic placode-like cells. […]"}, "[2]": {"test_system": "Matrigel-embedded hPSC aggregates", "assay": "Otic pit/vesicle formation in Matrigel-embedded day 12 aggregates treated with Wnt agonist", "source_text": "To promote PAX2 expression and vesicle formation, we began testing various signaling modulators (FIGS. 12A-12C). […] We suspected that extracellular matrix could provide structural support for vesicle formation; thus, we transferred day 12 aggregates to Matrigel droplets in a minimal media (FIG. 4A). In these cultures, we observed radial production of migratory cells, but no vesicle-like structures or PAX2^+ cells were apparent (FIG. 2B). Wnt activation seems to be essential for otic, but not epibranchial development, in vivo and can enhance the production of mouse inner ear organoids in vitro^4,19-21. Remarkably, in 90.9±5.2% of Matrigel®-embedded aggregates treated with a Wnt signaling agonist, CHIR99021, between days 12-16 (n=84, 7 experiments), we witnessed epithelial protrusions reminiscent of the otic pits that precede vesicle development in vivo (FIG. 4C). We determined that the otic pit-like structures were PAX2^+ PAX8^+ SOX2^+ SOX10^+ JAG1^+, confirming otic identity (FIGS. 4D-4H). […] The aggregates were resuspended in ice cold undiluted GFR Matrigel and placed in approximately 25 μl droplets on the surface of a 100 mm bacterial culture plate. After at least 30 minutes of incubation at 37° C., the droplets were bathed in 10 ml of OMNI containing 3 μM CHIR99021. For non-droplet otic induction, the aggregates were washed and plated individually into each well of a 24-well low cell adhesion plate in OMNI containing 3 μM CHIR and 1% GFR Matrigel. After 18 days of differentiation, the CHIR was removed from the medium by washing and the droplet aggregates were moved to a floating culture. Droplets were carefully dislodged using a wide-mouth […] tip and transferred to 75 ml of fresh OMNI in a 125 ml disposable spinner flask (Corning). Spinner flasks were maintained on an in-incubator stir plate (Thermo Scientific) at 65 RPM for up to 180 days of differentiation. For some experiments, the aggregates were maintained in individual wells of 24-well low-cell adhesion plates in 1 ml of OMM on an in-incubator orbital shaker (Thermo Scientific) for up to 140 days. […]"}, "[3]": {"test_system": "OEPD-induced aggregates", "assay": "qPCR of PAX8/PAX2 expression after WNT and FGF signaling modulation, days 8-10", "conditions": "one exploratory experiment", "method": "Thus, we changed strategies by lengthening the initial culture phase to 12 days (with addition of fresh media on day 8) and testing the effect of transitioning the aggregates to Matrigel™ droplets.\nQuantitative PCR. Analysis was performed as previously described on an ABI PRISM 7900HT Sequence Detection System (Applied Biosystems) or a Bio-Rad CFX96 quantitative PCR machine (Bio-Rad)^6. Data were normalized to L27 expression (internal control) and the fold change was calculated relative to Ct values from d0 WA25 aggregates using the ΔΔCt method. Unless stated otherwise, data represent at least 3 separate biological samples from separate experiments. All indicators of statistical significance refer to comparisons between a given condition and the control group. Refer to Table 4 for primer details."}}, "data": [{"smiles": "Cc1c[nH]c(-c2cnc(NCCNc3ccc(C#N)cn3)nc2-c2ccc(Cl)cc2Cl)n1", "note": "[CHIR99021]", "values": [{"measurement": "PAX2+ cells by day 12", "setting": "[1]", "value": "induces small patches of PAX2+ cells"}, {"measurement": "aggregates with epithelial protrusions reminiscent of otic pits", "setting": "[2]; CHIR99021 between days 12-16, n=84, 7 experiments", "value": "90.9±5.2", "unit": "%"}, {"measurement": "PAX8+ PAX2+ SOX10+ vesicles evaginating from the outer epithelium", "setting": "[2]; CHIR between days 12-18", "value": "10-30 vesicles per aggregate"}, {"measurement": "aggregates with otic vesicle formation", "setting": "[2]; Matrigel embedding with continued CHIR, days 12-18, >100 aggregates, four independent experiments", "value": "> 95", "unit": "%"}, {"measurement": "PAX2 expression (qPCR) compared to DMSO controls", "setting": "[3]", "value": "only had a modest positive or negative impact on PAX2 expression"}]}]}
